Reference: patent US20090318456A1, “SUBSTITUTED PTERIDINES FOR THE TREATMENT AND PREVENTION OF VIRAL INFECTIONS” (Gilead Sciences, Inc., priority 2006, published 2009)
Read-outs that look alike come from different tables or passages of the source.

Legend:
HCV replicon = experiment: Anti-HCV replicon assay (EC50, luciferase); format: cell-based, Hepatitis C virus (HCV)
Experimental: (§1) The anti HCV activity of specifically 2,4,6-trisubstituted pteridine derivatives was tested in a human hepatoma Huh-7 cell line harbouring a HCV replicon. The assay comprised the following steps:
(§2) Step 1: compound preparation and serial dilution involved the following alternatives, depending upon the water solubility of pteridine derivative being tested: • 1. with respect to water soluble 2,4,6-trisubstituted pteridine derivatives, 500 μL of solution in cell media (DMEM, 10% FBS, P/S, L-Glutamine) was prepared with a concentration that is twice the concentration of the starting final serial dilution concentration. 150 μL of the solution was added to the pre-specified wells in column 1 of a 96-well cell culture plate (PerkinElmer, white plate, cat. #6005181, for EC50 assay; black plate, cat. #6005182 for CC50 assay). The rest of the plate, i.e. columns 2-12, was filled with 100 μL of cell media. The plate was then placed on a Precision 2000 Workstation in order to start serial dilution. Pteridine compounds were diluted three times each step from column 1 to column 10. Column 11 was used as a blank control (no pteridine compound added). • 2. With respect to poorly water soluble pteridine derivatives, DMSO was used as a solvent, and serial dilution was performed in 50% DMSO in water, in a 384-well plate. A solution containing the relevant compound at 100-fold the concentration of the starting final serial dilution concentration was prepared in 50% DMSO in water and added to the pre-specified wells in column 1 of a polypropylene 384-well plate. This plate was then placed on a Precision 2000 Workstation in order to start serial dilution. After serial dilution, 2 μL of the solution was transferred from the 384-well plate to a 96-well cell culture plate containing 100 μL of cell media on a Biomek FX Workstation. The DMSO concentration in the final assay condition was 0.5% after cells have been added to the plate and the total volume in each well was brought to 200 μL. Step 2: to each well of the serial dilution plate prepared in step 1, 100 μL of cell media containing 6000 suspended Huh-7 HCV replicon cells was added with a Multidrop workstation. Plates were incubated for 3 days at 37° C. with 5% CO2. Step 3: detection: • 1) with respect to the EC50 assay, the media in a 96-well cell culture plate was aspirated with a Biotek EL405 plate-washer. A volume of 200 μL of a solution containing a 1:1 mixture of a cell-lysis buffer (commercially available from Promega, Luciferase Cell Culture Lysis 5× Reagent, cat. #E1531) and a luciferase substrate solution (commercially available from Promega, Luciferase Assay, cat. # E4550) was added to each well of the plate with Multidrop. The plate was incubated for 30 minutes at room temperature before the luminescence signal was measured with a TopCount plate-reader. • 2) with respect to the CC50 assay, 100 μL of a pre-mixed CellTiter-Glo (commercially available from Promega, cat. # G7572) solution was added directly to the cell culture in each well of the plate and the luminescence signal was measured with a TopCount plate-reader after 10 minutes of incubation at room temperature.
(§3) Results are expressed by the following data: • the 50% effective concentration (EC50), i.e. the concentration that protects 50% of the cell monolayer from virus-induced cythopathic effect, and • the 50% cytostatic concentration (CC50), i.e. the concentration that results in 50% inhibition of cell growth.

[1] = CC50 assay (CellTiter-Glo) in Huh-7 HCV replicon cells; format: cell-based, human; details: human
Experimental: as §1, §2, §3

Huh-7 HCV replicon cells = experiment: as above; format: cell-based, human
Experimental: as §1, §2, §3

HIV IIIb strain = experiment: Anti-HIV assay in MT-4 cells; format: cell-based; details: MT-4 cells infected with HIV IIIb, 5 days, CellTiter-Glo
Experimental: The anti HIV activity of some of the pteridine compounds listed in example C was tested in MT-4 cells infected with HIV IIIb strain. The assay comprised the following steps: • Step 1 (sample preparation). The compound stock solutions as prepared for Example C were diluted in MT4 cell media at a concentration equal to twice the concentration of the HCV EC50 or CC50 (the highest concentration of the two was chosen) obtained in Example C. To pre-defined wells of a 384-well black cell culture plate (NUNC), a volume of 50 μL of the compound solution is added. Serial dilution is performed by the workstation across the plate. Each compound is serially diluted 5-fold in each step, for a total of 6 steps (7 total concentrations). Compounds are tested in triplicates within each plate. Negative control was performed using 40 μL cell media only. At the end of the serial dilution, each well on the plate contained 40 μL of media containing different concentrations of compounds. A volume of 20 μL was transferred to a new plate to duplicate the plate. • step 2 (starting the assay): the plates are transferred into the HIV laboratory. To each plate, a volume of 20 μL MT-4 cell suspension (10^5 cells/mL) is dispensed into each well of the plate with the Multidrop dispenser. The HIV IIIb stock solution was diluted 1 to 500 in cell media (2 μL of virus+998 μL of media). 100-120 μL of diluted virus was then added to 10 ml cell suspension (containing 106 MT-4 cells). 20 μL of this cell suspension/virus was dispensed to each well of the plates with the Multidrop dispenser. The plates were incubated at 37° C. for 5 days in the cell culture incubator in the HIV laboratory. • step 3 (detection): on day 5, 40 μL of the pre-prepared CellTiter-Glo reagent was added to each well of the plates using the Multidrop dispenser. The plates were incubated at room temperature for 10 minutes to stabilize the luminescence signal. The luminescence was measured on the Victor 2 plate reader with an integration time of 0.25-1 seconds per sample. […] It is clear from the table that none of the pteridine compounds tested is active against HIV.

[2] = Hepatitis C virus, 72 h, Table 4, Huh-7 HCV replicon cells, 3 days, luciferase, read-out: EC50
[3] = Table 2, Huh-7 HCV replicon cells, 3 days, luciferase, read-out: EC50
[4] = Table 3, Huh-7 HCV replicon cells, 3 days, luciferase, read-out: EC50
[5] = Table 1, Huh-7 HCV replicon cells, 3 days, luciferase, read-out: EC50

Fc1ccc(CNc2nc(NCC(F)(F)F)c3nc(-c4ccc(F)cc4)cnc3n2)cc1 [Example E, N2-(4-Fluoro-benzyl)-6-(4-fluoro-phenyl)-N4-(2,2,2-trifluoro-ethyl)-pteridine-2,4-diamine]
EC50 (HCV replicon; [2]): < 0.3 µM
CC50 at 3 days ([1]; Table 4): < 10 µM

NS(=O)(=O)c1ccc(CNc2nc(NCC(F)(F)F)c3nc(-c4ccc(C(=O)NC5CC5)cc4)cnc3n2)cc1 [Example H, N-Cyclopropyl-4-[2-(4-sulfamoyl-benzylamino)-4-(2,2,2-trifluoro-ethylamino)-pteridin-6-yl]-benzamide]
EC50 (HCV replicon; Hepatitis C virus, Huh-7, 72 h): 0.3 to 1 µM
CC50 at 3 days ([1]; Table 4): > 20 µM

CCOc1nc(N)nc2ncc(-c3ccc(OC)c(OC)c3)nc12 [Example 134]
EC50 (HCV replicon; [3]): < 0.3 µM
CC50 (Huh-7 HCV replicon cells; Table 2, 3 days): > 20 µM
EC50 (HIV IIIb strain): > 100 µM

CC(C)Oc1nc(N)nc2ncc(-c3ccc(F)cc3)nc12 [2-amino-4-isopropoxy-6-(4-fluorophenyl)-pteridine]
EC50 (HCV replicon; Hepatitis C virus, 72 h, Table 6, Huh-7 HCV replicon cells, 3 days, luciferase, read-out: EC50): < 0.3 µM
CC50 at 3 days ([1]; Table 6): > 20 µM

CCS(=O)(=O)Nc1cccc(-c2cnc3nc(N)nc(N4CCOCC4)c3n2)c1 [Example 201]
EC50 (HCV replicon; [4]): 0.3 to 1 µM
CC50 (Huh-7 HCV replicon cells; Table 3, 3 days): > 20 µM
EC50 (HIV IIIb strain): 17.8 µM

CCOc1nc(NCc2ccc(F)cc2)nc2ncc(-c3ccc(F)cc3)nc12 [Example C]
EC50 (HCV replicon; Hepatitis C virus, Huh-7, 72 h): < 0.3 µM
CC50 at 3 days ([1]; Table 4): > 20 µM

CCC(=O)Nc1ccc(-c2cnc3nc(N)nc(N4CCOCC4)c3n2)cc1 [Example 216]
EC50 (HCV replicon; [4]): 0.3 to 1 µM
CC50 (Huh-7 HCV replicon cells; Table 3, 3 days): > 20 µM
EC50 (HIV IIIb strain): > 100 µM

COc1ccc(-c2cnc3nc(N)nc(N4CCN(C)CC4)c3n2)cc1OC [Example 181]
EC50 (HCV replicon; [3]): < 0.3 µM
CC50 (Huh-7 HCV replicon cells; Table 2, 3 days): 10 to 20 µM
EC50 (HIV IIIb strain): > 100 µM

NS(=O)(=O)c1ccc(CNc2nc(NCC(F)(F)F)c3nc(-c4ccc(F)cc4)cnc3n2)cc1 [Example D, 4-{[6-(4-fluoro-phenyl)-4-(2,2,2-trifluoro-ethylamino)-pteridin-2-ylamino]-methyl}-benzenesulfonamide]
EC50 (HCV replicon; Hepatitis C virus, Huh-7, 72 h): < 0.3 µM
CC50 at 3 days ([1]; Table 4): > 20 µM

NS(=O)(=O)c1ccc(CNc2nc(NCC(F)(F)F)c3nc(-c4ccc(F)c(Cl)c4)cnc3n2)cc1 [Example I, 4-{[6-(3-Chloro-4-fluoro-phenyl)-4-(2,2,2-trifluoro-ethylamino)-pteridin-2-ylamino]-methyl}-benzenesulfonamide]
EC50 (HCV replicon; Hepatitis C virus, Huh-7, 72 h): 0.3 to 1 µM
CC50 at 3 days ([1]; Table 4): 10 to 20 µM

COc1ccc(-c2cnc3nc(N)nc(N4CCOCC4)c3n2)cc1OC [Example 158]
EC50 (HCV replicon; [3]): < 0.3 µM
CC50 (Huh-7 HCV replicon cells; Table 2, 3 days): 10 to 20 µM
EC50 (HIV IIIb strain): > 100 µM

CCOc1nc(N)nc2ncc(-c3ccc(F)cc3)nc12 [Example 131, 2-amino-4-ethoxy-6-(4-fluorophenyl)-pteridine]
EC50 (HCV replicon; Hepatitis C virus, 72 h, Table 2, Huh-7 HCV replicon cells, 3 days, luciferase, read-out: EC50): < 0.3 µM
CC50 at 3 days ([1]; Table 2): > 20 µM

CCOc1nc(NCc2ccc(S(N)(=O)=O)cc2)nc2ncc(-c3ccc(F)cc3)nc12 [Example G, 4-{[4-Ethoxy-6-(4-fluoro-phenyl)-pteridin-2-ylamino]-methyl}-benzenesulfonamide]
EC50 (HCV replicon; [2]): < 0.3 µM
CC50 at 3 days ([1]; Table 4): > 20 µM

CC(Nc1nc(NCC(F)(F)F)c2nc(-c3ccc(F)cc3)cnc2n1)c1ccc(S(N)(=O)=O)cc1 (stereo not shown) [Example F, 4-{1-[6-(4-Fluoro-phenyl)-4-(2,2,2-trifluoro-ethylamino)-pteridin-2-ylamino]-ethyl}-benzenesulfonamide]
EC50 (HCV replicon; [2]): < 0.3 µM
CC50 at 3 days ([1]; Table 4): < 10 µM

COc1ccc(-c2cnc3nc(N)nc(N4CCN(CC5CCCO5)CC4)c3n2)cc1OC (stereo not shown) [Example 108]
EC50 (HCV replicon; [5]): 0.3 to 1 µM
CC50 (Huh-7 HCV replicon cells; Table 1, 3 days): > 20 µM

COc1ccc(OC(=O)N2CCN(c3nc(N)nc4ncc(-c5ccc(OC)c(OC)c5)nc34)CC2)cc1 [Example 60]
EC50 (HCV replicon; [5]): < 0.3 µM
CC50 (Huh-7 HCV replicon cells; Table 1, 3 days): < 10 µM

COc1ccc(-c2cnc3nc(N)nc(N4CCN(Cc5ccccn5)CC4)c3n2)cc1OC [Example 99]
EC50 (HCV replicon; [5]): 0.3 to 1 µM
CC50 (Huh-7 HCV replicon cells; Table 1, 3 days): 10 to 20 µM

CCC(C)Nc1nc(N)nc2ncc(-c3ccc(OC)c(OC)c3)nc12 (stereo not shown) [Example 230]
EC50 (HCV replicon; [4]): 0.3 to 1 µM
CC50 (Huh-7 HCV replicon cells; Table 3, 3 days): > 20 µM

COc1ccc(-c2cnc3nc(N)nc(N4CCN(C(=O)N5CCCC5)CC4)c3n2)cc1OC [Example 29]
EC50 (HCV replicon; [5]): < 0.3 µM
CC50 (Huh-7 HCV replicon cells; Table 1, 3 days): 10 to 20 µM

COc1ccc(-c2cnc3nc(N)nc(N4CCN(C(=O)c5ccoc5)CC4)c3n2)cc1OC [Example 38]
EC50 (HCV replicon; [5]): 0.3 to 1 µM
CC50 (Huh-7 HCV replicon cells; Table 1, 3 days): 10 to 20 µM

COc1ccc(-c2cnc3nc(N)nc(N4CCN(C(=O)NCCc5cccs5)CC4)c3n2)cc1OC [Example 115]
EC50 (HCV replicon; [5]): < 0.3 µM
CC50 (Huh-7 HCV replicon cells; Table 1, 3 days): < 10 µM

COc1ccc(-c2cnc3nc(N)nc(N4CCN(C(=O)c5ccncc5)CC4)c3n2)cc1OC [Example 22]
EC50 (HCV replicon; [5]): < 0.3 µM
CC50 (Huh-7 HCV replicon cells; Table 1, 3 days): 10 to 20 µM

CCC(C)Nc1nc(N)nc2ncc(-c3ccc(OC)c(OC)c3)nc12 (stereo not shown) [Example 234]
EC50 (HCV replicon; [4]): 0.3 to 1 µM
CC50 (Huh-7 HCV replicon cells; Table 3, 3 days): > 20 µM

COc1ccc(-c2cnc3nc(N)nc(N4CCN(C(=O)Nc5ccc(F)c(Cl)c5)CC4)c3n2)cc1OC [Example 113]
EC50 (HCV replicon; [5]): < 0.3 µM
CC50 (Huh-7 HCV replicon cells; Table 1, 3 days): < 10 µM

COc1ccc(-c2cnc3nc(N)nc(N4CCN(S(=O)(=O)Cc5ccccc5)CC4)c3n2)cc1OC [Example 34]
EC50 (HCV replicon; [5]): < 0.3 µM
CC50 (Huh-7 HCV replicon cells; Table 1, 3 days): > 20 µM
